Measured values: patent publication US10920230B2, “Methylotrophs for aquaculture and animal feed” (KnipBio, Inc., priority 2013, dated 2021)
In brackets after ≈: the same amount, converted by molar mass.

What was measured:
[1] = system: wild-type B. fungorum LB400; assay: Natural chloramphenicol resistance seen during selection of transconjugants; type: cell-based, Burkholderia fungorum; settings: citrate medium
Procedure: A ΔflhA::kan mutant of B. fungorum LB400 was generated by introducing pCM363 by conjugation. […] One tetracycline-sensitive strain representing a ΔfIhA::kan mutant, CM363K.1, was chosen for further study. The plasmid pCM157 was used as described above to produce the ΔflhA strain CM363.1. Analytical PCR was performed with wild-type B. fungorum LB400, CM363K.1, and CM363.1 for confirmation (data not shown).

SMILES	naturally resistant below [1] [µg/mL]	MIC (ΔflhA strain CM363.1) [µM]
O=C(N[C@H](CO)[C@H](O)c1ccc([N+](=O)[O-])cc1)C(Cl)Cl [chloramphenicol]	10 to 20	–
C=O [formaldehyde]	–	100 (≈ 3 µg/mL)
